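Step 1: Grow cells in 96-well plates. Step 2: Expose to compound for 48 hours at 5 concentrations. Step 3: Interpolate endpoints linearly; if unreached, use highest concentration. GI50 = concentration required for 50% inhibition of growth.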 Calls of active or inactive are those of the source. Cut-off read from the data, not from the text of the source: active = GI50 up to about 1.1 µM and inactive = higher.
Columns and labels:
Test in all cases: inhibition of tumour cell growth, NCI panel, 48 h
KM12 = test system: KM12
CAKI-1 = test system: CAKI-1
OVCAR-8 = test system: OVCAR-8
LOX IMVI = test system: LOX IMVI
BT-549 = test system: BT-549
ACHN = test system: ACHN
PC-3 = test system: PC-3
TK-10 = test system: TK-10
SF-268 = test system: SF-268
T47D = test system: T47D
SF-295 = test system: SF-295
RPMI-8226 = test system: RPMI-8226
SK-OV-3 = test system: SK-OV-3
K562 = test system: K562
MOLT-4 = test system: MOLT-4
SF-539 = test system: SF-539
OVCAR-3 = test system: OVCAR-3
M14 = test system: M14
COLO 205 = test system: COLO 205
MCF7 = test system: MCF7

Measured: GI50

C1CN(c2nnc(N3CCC3)nn2)C1
inactive: KM12 > 89.5 µM | CAKI-1 > 94.4 µM | OVCAR-8 > 100 µM | LOX IMVI 17.8 µM | BT-549 > 65.9 µM | ACHN > 69.8 µM | PC-3 > 46 µM | TK-10 > 100 µM | SF-268 90.6 µM | T47D > 100 µM | SF-295 37.3 µM | RPMI-8226 > 100 µM | SK-OV-3 > 100 µM | K562 23.6 µM | MOLT-4 > 100 µM | SF-539 44.8 µM | OVCAR-3 > 92.7 µM | M14 36.1 µM | COLO 205 60.7 µM | MCF7 > 50.2 µM

N#Cc1nc(CCCCCN2C(=O)c3ccccc3C2=O)oc1N
inactive: KM12 > 100 µM | CAKI-1 > 100 µM | OVCAR-8 > 100 µM | LOX IMVI > 100 µM | BT-549 25.7 µM | ACHN > 100 µM | PC-3 > 100 µM | TK-10 > 100 µM | SF-268 > 100 µM | T47D > 100 µM | SF-295 > 100 µM | RPMI-8226 21.1 µM | SK-OV-3 > 100 µM | K562 17 µM | MOLT-4 75.7 µM | SF-539 > 100 µM | OVCAR-3 > 100 µM | M14 > 100 µM | COLO 205 > 100 µM | MCF7 > 100 µM

N=C1/C(=C/c2ccco2)C(=O)N=C2SC=NN12
inactive: KM12 > 100 µM | CAKI-1 > 100 µM | OVCAR-8 > 100 µM | LOX IMVI > 100 µM | BT-549 > 100 µM | ACHN > 100 µM | PC-3 > 100 µM | TK-10 > 100 µM | SF-268 > 100 µM | T47D > 100 µM | SF-295 > 100 µM | RPMI-8226 > 100 µM | SK-OV-3 > 100 µM | K562 > 100 µM | MOLT-4 > 100 µM | SF-539 > 100 µM | OVCAR-3 > 100 µM | M14 > 100 µM | COLO 205 > 100 µM | MCF7 > 100 µM

NC1CC(=O)c2ccccc21 (stereo not given)
inactive: KM12 > 100 µM | CAKI-1 > 100 µM | OVCAR-8 > 100 µM | LOX IMVI > 100 µM | BT-549 > 100 µM | ACHN > 100 µM | PC-3 > 100 µM | TK-10 > 100 µM | SF-268 > 100 µM | T47D > 100 µM | SF-295 > 100 µM | RPMI-8226 > 100 µM | SK-OV-3 > 100 µM | K562 > 100 µM | MOLT-4 > 100 µM | SF-539 > 100 µM | OVCAR-3 > 100 µM | M14 > 100 µM | COLO 205 > 100 µM | MCF7 > 100 µM

C=C1c2nc3ccccc3n2C=C(c2ccc(C)cc2)N1c1ccc(C)cc1
inactive: KM12 23.8 µM | CAKI-1 > 100 µM | OVCAR-8 18.9 µM | LOX IMVI 34.8 µM | BT-549 51.6 µM | ACHN > 78 µM | PC-3 28.6 µM | TK-10 > 100 µM | SF-268 > 100 µM | T47D > 100 µM | SF-295 50.9 µM | RPMI-8226 21.4 µM | SK-OV-3 > 100 µM | K562 19.9 µM | MOLT-4 31.6 µM | SF-539 > 48.1 µM | OVCAR-3 64.7 µM | M14 56.1 µM | COLO 205 28.8 µM | MCF7 26.2 µM

Nc1nc(-c2ccccc2)c(CC(=O)O)s1
inactive: KM12 > 100 µM | CAKI-1 > 100 µM | OVCAR-8 > 100 µM | LOX IMVI > 100 µM | BT-549 > 100 µM | ACHN > 100 µM | PC-3 > 100 µM | TK-10 > 100 µM | SF-268 > 100 µM | T47D > 100 µM | SF-295 > 100 µM | RPMI-8226 > 100 µM | SK-OV-3 > 100 µM | K562 > 100 µM | MOLT-4 > 100 µM | SF-539 > 100 µM | OVCAR-3 > 100 µM | M14 > 100 µM | COLO 205 > 100 µM | MCF7 > 100 µM

NNC(=O)CCSc1ccccc1
inactive: KM12 > 100 µM | CAKI-1 > 100 µM | OVCAR-8 > 100 µM | LOX IMVI > 100 µM | BT-549 > 100 µM | ACHN > 100 µM | PC-3 > 100 µM | TK-10 > 100 µM | SF-268 > 100 µM | T47D > 100 µM | SF-295 > 100 µM | RPMI-8226 > 100 µM | SK-OV-3 > 100 µM | K562 > 100 µM | MOLT-4 > 100 µM | SF-539 > 100 µM | OVCAR-3 > 100 µM | M14 > 100 µM | COLO 205 > 100 µM | MCF7 > 100 µM
